Where “and” joins values, the source holds several entries; their conditions need not be identical. Equal entries are not always repeated.
Key:
[1] = tested on: A549 cells; assay: FACS assay in cultured cells; conditions: for HX103 dose-dependent signal (Supplementary Fig. 18): 20 µM = 100
Method: Briefly, the cultured cells were seeded on the petri dish and counted using Count star BioMed automated cell counter. Around 10^6 live-cells were collected and were pelleted (2000×g, 3 min), followed by washing with PBS (2x). Cells were then resuspended in PBS buffer containing 0.1% BSA (1 × 10^6 cells/mL). […] The cell suspension was resuspended in PBS and analyzed with a FACSVerse^TM flow cytometer (BD Biosciences, LSRFortessa). About 10,000 events per tube were analyzed and the mean fluorescence intensity was detected and analyzed.
For the FACS assay with EGFR antibody, around 10^6 live-cells were collected and washed with PBS (2x). The cells were fixed by 400 µL 4% paraformaldehyde for 15 min at room temperature, followed by permeabilization with 0.1% Triton X-100 for 10 min and blocking with 5% BSA for 30 min. […] The cells were then washed with 0.5% BSA/PBS (3x) and resuspended in 400 µL of 0.1% BSA/PBS. […] The resuspended cell suspension was then analyzed on a FACSVerseTM flow cytometer (BD Biosciences, LSRFortessa). Nonspecific fluorescence binding was omitted by Rabbit mAb IgG isotype control (#3900, CST, 1:100) and the corresponding mean fluorescence was subtracted from the signal measured with each primary antibody. About 10,000 events per tube were analyzed and the mean fluorescence intensity was detected and analyzed.
Subsequently, the treated cells were incubated for 30 min at 37 °C, followed by washing with PBS buffer three times. […] Finally, the co-stained cells were washed with 0.5% BSA/PBS for three times and resuspended in 400 µL of 0.1% BSA/PBS. The obtained cell suspension was ready for analysis. Nonspecific fluorescence binding was omitted by Rabbit mAb IgG isotype control (#3900, CST, 1:100) as described above.
Nonspecific fluorescence binding was omitted by Rabbit mAb IgG isotype control (#3900, CST, 1:100). […] After incubation for another 30 min at room temperature, the co-stained cells were washed with 0.5% BSA/PBS for three times and resuspended in 400 µL of 0.1% BSA/PBS. The obtained cell suspension was ready for analysis. Nonspecific fluorescence binding was omitted by Rabbit mAb IgG isotype control (#3900, CST, 1:100) as described above.
The cells were seeded on the petri dish and cultured at the normal condition with 10% FBS, and that was changed to serum-free condition for 24 h when the cells proliferated at ~80% confluence. […] Nonspecific fluorescence binding was omitted by Rabbit mAb IgG isotype control (#3900, CST, 1:100) as described above.

[2] = tested on: H1975 cells; assay: MTT cytotoxicity assay; type: cell-based; conditions: Homo sapiens, NCI-H1975; EGFR L858R/T790M, 48 h, n=3
[3] = molecular target: T1, EGFR T790M (Homo sapiens, UniProt P00533, T790M); assay: Kinase inhibition assay (fluorescent mobility-shift assay); type: biochemical; set-up: Kinase activity: unit not given here; conditions: for Kinase activity: T790M, n=1-3;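 on decrease of inhibition toward T790M compared to 19del: Cell-free assay with recombinant human EGFR T790M enzyme, compound preincubated with the kinase at room temperature before the reaction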;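 on decrease of inhibition toward T790M compared to L858R: Cell-free assay with recombinant human EGFR T790M enzyme, compound preincubated with the kinase at room temperature before the reaction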
T1 construct: EGFR T790M (amino acids 668–1210, #PR8052A); purchased Thermo Fisher PR8052A

[4] = molecular target: T2, EGFR 19del (Homo sapiens, UniProt P00533, DEL746-750); assay: Fluorescence turn-on response / titration of HX103 with recombinant EGFR;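 on Fluorescence intensity at 570 nm: 100% is HX103 fluorescence with wild-type EGFR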;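 on Fluorescence response of HX103 to EGFR 19del: ratio I over I0 of probe intensity with versus without protein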; type: binding; conditions: for Fluorescence intensity, DEL19: Fig. 2c; for Fluorescence response of HX103 to EGFR 19del: Supplementary Fig. 2f
T2 construct: purchased Thermo Fisher PV6179
Method: (d) Fluorescence spectra change of HX103 (5 µ M) with increasing concentration of EGFR L858R
(e) Fluorescence spectra change of HX103 (5 µ M ) with
increasing concentration of EGFR 19del (0 to 6 µM) in PBS buffer. (f) Titration curve of HX103
(5 µM) with increasing concentration of EGFRs (0 to 6 µM). The apparent binding affinity (Kd)
The fluorescence titration curve was fitted on one -
site specific binding model. I and I0 represent the intensities of HX103 at 570 nm in the presence
and absence of protein. Data represent average val ues ± SD, n = 3 independent experiments per
dissolved in dimethyl sulfoxide (DMSO) to obtain stock solutions (10 mM). The prepared stock
solution was diluted in sodium phosphate buffer (PBS, 1 M, pH=7.4) to obtain the desired final
concentration solution, containing 0.1% (v/v) DMSO as a cosolvent.
and emission fluorescence spectra of the solution before/after addition o f different concentration
Data analysis：The obtained fluorescence intensity at 570 nm (Excitation wavelength was 440
nm) in each sample was normalized by using the fluorescence intensity of HX103 in the presence
of EGFR. Specifically, the fluorescence intensity of HX103 in the presence of EGFR wild-type
was set at 100% to normalized that of the remaining samples.

[5] = MTT cytotoxicity assay; type: cell-based; conditions: human, HeLa cells, EGFR wild-type, n=3
[6] = molecular target: BSA (Bos taurus, UniProt P02769); assay: Fluorescence spectra of HX103 with BSA (Fig. 2c); type: binding
Sequence of BSA (P02769 25-607): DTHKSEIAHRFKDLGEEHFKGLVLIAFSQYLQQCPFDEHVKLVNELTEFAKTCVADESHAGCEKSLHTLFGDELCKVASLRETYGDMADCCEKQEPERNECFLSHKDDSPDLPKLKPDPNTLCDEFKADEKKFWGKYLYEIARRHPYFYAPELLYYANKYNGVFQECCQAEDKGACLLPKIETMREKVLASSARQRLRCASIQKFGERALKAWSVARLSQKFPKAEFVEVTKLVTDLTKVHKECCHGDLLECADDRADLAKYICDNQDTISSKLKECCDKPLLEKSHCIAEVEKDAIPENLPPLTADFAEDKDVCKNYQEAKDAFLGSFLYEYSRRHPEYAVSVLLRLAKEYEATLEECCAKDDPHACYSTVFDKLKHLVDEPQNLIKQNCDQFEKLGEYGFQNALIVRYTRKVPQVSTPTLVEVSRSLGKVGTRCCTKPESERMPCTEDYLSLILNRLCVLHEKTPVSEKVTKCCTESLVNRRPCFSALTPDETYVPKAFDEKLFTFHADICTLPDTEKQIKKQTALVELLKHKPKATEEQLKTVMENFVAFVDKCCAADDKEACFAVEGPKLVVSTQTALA

[7] = tested on: biopsy samples from NSCLC patients; assay: HX103-based multicolor FACS, biopsy samples; type: cell-based, human
[8] = tested on: tumor tissues from NSCLC patients; assay: HX103-based multicolor FACS, surgical tumor tissues; type: cell-based, human
Method: The obtained tissues were dissociated into single-cell suspension using a standard protocol of primary cell isolation. Briefly, the obtained fresh tissue was placed in a petri dish on ice and cut into small pieces of ~2 mm. […] Subsequently, the digested sample was filtered through 70-μm and 40-μm cell strainer (Falcon), respectively, followed by the wash with serum-free medium (DMEM). The tumor cell pellet was then obtained by centrifugation at 500×g for 5 min at 4 °C for the removal of the supernatant. Then, the cell pellet was resuspended in serum-free medium and 1 mL of red blood cell lysis buffer was added and incubated for 5 min to remove the erythrocyte. The cells were pelleted and resuspended in a serum-free medium and ready for FACS analysis[67],[68]. […]
Gibco), and digested for 30 min at 37 ℃ under gentle agitation. […] The cells were pelleted and resuspended in serum-free medium and ready for FACS analysis 2, 3. […]
The co-staining was performed for 30 min at 37 °C, then the cells were pelleted (2000 g, 3 min) and washed with PBS buffer and PBS (containing 1% BSA) (2 times). The cells were pelleted (2000 g, 3 min) and resuspended in PBS (containing 1% BSA) and ready for analysis with a FACSVerseTM flow cytometer (BD Biosciences, LSRFortessa) (the lasers used for this study: 405 nm, 488 nm and 647 nm). […]

[9] = molecular target: T3, EGFR wild-type (Homo sapiens, UniProt P00533); assay: Kinase inhibition assay (fluorescent mobility-shift assay); type: biochemical; set-up: Kinase activity: unit not given here; conditions: for Kinase activity: EGFR WT, n=1-3;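 on decrease of inhibition toward T790M compared to 19del: Cell-free assay with recombinant human EGFR T790M enzyme, compound preincubated with the kinase at room temperature before the reaction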;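 on decrease of inhibition toward T790M compared to L858R: Cell-free assay with recombinant human EGFR T790M enzyme, compound preincubated with the kinase at room temperature before the reaction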
T3 construct: Recombinant human EGFR (amino acids 668–1210, #PR7295B); purchased Thermo Fisher PR7295B

[10] = molecular target: T2, EGFR 19del; assay: as above; type: biochemical; set-up: Kinase activity: unit not given here; conditions: for Kinase activity: 19del, n=1-3
[11] = Fig. 6d, Mutation, average over patients
[12] = Fig. 6d, Mutation, one value per patient
[13] = Fig. 6d, WT, average over patients
[14] = Fig. 6d, WT, one value per patient

decrease of inhibition toward T790M compared to 19del ([3]; IC50 T790M vs 19del): ~ 750 fold
decrease of inhibition toward T790M compared to L858R ([3]; IC50 T790M vs L858R): ~ 650 fold
Kinase activity ([3]; Log [HX103 (M)] -4.5): 14.55 and 14.95 and 12.5
Kinase activity ([3]; Log [HX103 (M)] -5): 16 and 19.07 and 16.33
Kinase activity ([3]; Log [HX103 (M)] -5.5): 24.68 and 25.89 and 23.04
Kinase activity ([3]; Log [HX103 (M)] -6): 50.45 and 49.72 and 50.33
Kinase activity ([3]; Log [HX103 (M)] -6.5): 74.42 and 70.48 and 67.65
Kinase activity ([3]; Log [HX103 (M)] -7): 85.94 and 86.13 and 86.01
Kinase activity ([3]; Log [HX103 (M)] -7.5): 96.44 and 90.88 and 91.86
Kinase activity ([3]; Log [HX103 (M)] -8): 104.4 and 100.7 and 101.1
Kinase activity ([3]; Log [HX103 (M)] -8.5): 97.33 and 103.4 and 97.96
Kinase activity ([3]; Log [HX103 (M)] -9): 98.09 and 98.85 and 98.65
IC50 ([3]; n = 3): 977 nM
Fluorescence intensity, DEL19 ([4]; wavelength 666 nm): 6329.64
Fluorescence intensity, DEL19 ([4]; wavelength 669 nm): 5943.64
Fluorescence intensity, DEL19 ([4]; wavelength 671 nm): 5458.74
Fluorescence intensity, DEL19 ([4]; wavelength 673 nm): 4903.02
Fluorescence intensity, DEL19 ([4]; wavelength 676 nm): 4330.47
Fluorescence intensity, DEL19 ([4]; wavelength 678 nm): 3796.5
Fluorescence intensity, DEL19 ([4]; wavelength 681 nm): 3356.07
Fluorescence intensity, DEL19 ([4]; wavelength 683 nm): 3030.49
Fluorescence intensity, DEL19 ([4]; wavelength 686 nm): 2784.09
Fluorescence intensity, DEL19 ([4]; wavelength 688 nm): 2575.72
Fluorescence intensity, DEL19 ([4]; wavelength 690 nm): 2364.25
Fluorescence intensity, DEL19 ([4]; wavelength 693 nm): 2121.24
Fluorescence intensity, DEL19 ([4]; wavelength 695 nm): 1850.71
Fluorescence intensity, DEL19 ([4]; wavelength 698 nm): 1561.85
Fluorescence intensity, DEL19 ([4]; wavelength 700 nm): 1263.82
Fluorescence intensity at 570 nm ([4]; Fig. 2d, HX103 with EGFR 19del, n=1-3): 101.138 and 103.905 and 84.1794
fluorescence turn-on response ([4]; HX103 5 µM in PBS buffer (0.1% DMSO), 570 nm): high fluorescence
Kd ([4]; HX103 5 µM, EGFR 0 to 6 µM in PBS, one-site specific binding model, read-out: apparent binding affinity (Kd)): 1100 ± 200 nM
Fluorescence response of HX103 to EGFR 19del ([4]; EGFR 0.1 µM, n=1-3): 2.201 and 2.149 and 2.11
Fluorescence response of HX103 to EGFR 19del ([4]; EGFR 1 µM, n=1-3): 5.519 and 5.544 and 5.826
Fluorescence response of HX103 to EGFR 19del ([4]; EGFR 5 µM, n=1-3): 8.2406 and 9.498 and 10.3034
Fluorescence response of HX103 to EGFR 19del ([4]; EGFR 6 µM, n=1-3): 10.0143 and 10.322 and 11.4127
Fluorescence intensity, BSA ([6]; wavelength 666 nm): 1883.79
Fluorescence intensity, BSA ([6]; wavelength 669 nm): 1770.88
Fluorescence intensity, BSA ([6]; wavelength 671 nm): 1700.55
Fluorescence intensity, BSA ([6]; wavelength 673 nm): 1676.53
Fluorescence intensity, BSA ([6]; wavelength 676 nm): 1671.89
Fluorescence intensity, BSA ([6]; wavelength 678 nm): 1658.01
Fluorescence intensity, BSA ([6]; wavelength 681 nm): 1606.53
Fluorescence intensity, BSA ([6]; wavelength 683 nm): 1507.19
Fluorescence intensity, BSA ([6]; wavelength 686 nm): 1380.4
Fluorescence intensity, BSA ([6]; wavelength 688 nm): 1249.52
Fluorescence intensity, BSA ([6]; wavelength 690 nm): 1137.89
Fluorescence intensity, BSA ([6]; wavelength 693 nm): 1060.59
Fluorescence intensity, BSA ([6]; wavelength 695 nm): 1011.56
Fluorescence intensity, BSA ([6]; wavelength 698 nm): 981.361
Fluorescence intensity, BSA ([6]; wavelength 700 nm): 960.577
Kinase activity ([9]; Log [HX103 (M)] -7): 3.448 and 5.933 and 4.591
Kinase activity ([9]; Log [HX103 (M)] -7.5): 17.07 and 12.53 and 15.46
Kinase activity ([9]; Log [HX103 (M)] -8): 28.39 and 28.36 and 28.22
Kinase activity ([9]; Log [HX103 (M)] -8.5): 52.62 and 55.81 and 54.21
Kinase activity ([9]; Log [HX103 (M)] -9): 85.4 and 76.53 and 77.56
IC50 ([9]; n = 3): 4 nM
Kinase activity ([10]; Log [HX103 (M)] -7.5): 4.826 and 8.074 and 4.95
Kinase activity ([10]; Log [HX103 (M)] -8): 14.14 and 14.3 and 14.2
Kinase activity ([10]; Log [HX103 (M)] -8.5): 33.15 and 25.38 and 27.26
Kinase activity ([10]; Log [HX103 (M)] -9): 51.95 and 59.57 and 58.76
IC50 ([10]; n = 3): 1.3 nM
SMILES: COc1cc2c(Nc3ccc(F)c(Cl)c3)ncnc2cc1OCCCNc1ccc(S(=O)(=O)N(C)C)c2nonc12 [HX103]
EGFR(+) HX103 (+) (%) AVE ([1]; A549, AVE of n=3): 13.21%
HX103 (+) (%) AVE ([1]; A549, AVE of n=3): 14.4253%
HX103 dose-dependent signal (Supplementary Fig. 18) ([1]; A549, HX103 0.04 µM): 1.227 and 1.64 and 1.474
HX103 dose-dependent signal (Supplementary Fig. 18) ([1]; A549, HX103 0.37 µM): 16.7962 and 13.0237 and 14.9399
HX103 dose-dependent signal (Supplementary Fig. 18) ([1]; A549, HX103 1.1 µM): 32.8472 and 24.022 and 28.4446
HX103 dose-dependent signal (Supplementary Fig. 18) ([1]; A549, HX103 3.3 µM): 43.6352 and 41.2034 and 42.4293
HX103 dose-dependent signal (Supplementary Fig. 18) ([1]; A549, HX103 10 µM): 71.5104 and 62.9379 and 67.2341
HX103 dose-dependent signal (Supplementary Fig. 18) ([1]; A549, HX103 15 µM): 96.2656 and 89.3616 and 85.8336
HX103 dose-dependent signal (Supplementary Fig. 18) ([1]; A549, HX103 20 µM): 100
HX103 signal (Supplementary Fig. 7) ([1]; A549, HX103 alone or with Gefitinib, replicates n=1-3): 102.046 and 98.7743 and 99.18
EGFR(+) HX103 (+) (%) ([1]; A549, replicates n=1-3): 7.43% and 15.21% and 16.99%
HX103(+) (%) ([1]; A549, replicates n=1-3): 14.626% and 17.32% and 11.33%
normalized MFI of HX103 labeling ([1]; HX103 5 µM, 30 min, replicates n=1-3): 51.9313% and 58.1545% and 55.0429%
EGFR(+) HX103 (+) (%) ([1]; HX103 5 µM, replicates n=1-3): 15.21% and 16.99% and 7.43%
IC50 [2]: 45000 nM
IC50 at 48 h [5]: > 100000 nM
mean ratio of EGFR(+)HX103(+), responders ([7]; CR or PR, n = 9): 43.5 ± 2.8%
mean ratio of HX103(+), responders ([7]; CR or PR, n = 9): 54.1 ± 3.3%
EGFR(+) HX103 (+) (%) AVE ([7]; Fig. 6f, CR/PR, average): 43.5167%
HX103 (+) (%) AVE ([7]; Fig. 6f, CR/PR, average): 54.1%
EGFR(+) HX103 (+) (%) AVE ([7]; Fig. 6f, SD/PD, average): 9.47%
HX103 (+) (%) AVE ([7]; Fig. 6f, SD/PD, average): 17.0025%
EGFR(+) HX103 (+) (%) ([7]; Fig. 6g, Patient (No. 3)): 26.16%
EGFR(+) HX103 (+) (%) ([7]; Fig. 6h, Patient (No. 7)): 34.2%
HX103(+) (%) ([7]; Fig. 6h, Patient (No. 7)): 51.5%
EGFR(+) HX103 (+) (%) AVE [7, 11]: 34.0833%
HX103 (+) (%) AVE [7, 11]: 48.2347%
EGFR(+) HX103 (+) (%) [7, 12]: 47.7% and 46.42% and 26.16% and 37.95% and 54.7% and 42.61% and 34.2% and 4.84% and 50.92% and 41.57% and 2.07% and 30.8% and 55.7% and 4.81%
HX103(+) (%) [7, 12]: 47.95% and 53.5% and 30.41% and 49.49% and 61.89% and 48.6% and 51.54% and 13.72% and 92.61% and 50.98% and 11.82% and 76% and 77.45% and 45.5% and 12.06%
EGFR(+) HX103 (+) (%) AVE [7, 13]: 3.4875%
HX103 (+) (%) AVE [7, 13]: 10.0231%
EGFR(+) HX103 (+) (%) [7, 14]: 2.605% and 13.7% and 4.44% and 3.27% and 0.6% and -0.34% and 1.35% and 4.89% and 0.098% and 0.24% and 1.08% and 10.76% and 4.24% and 2.1% and 0.447% and 6.32%
HX103(+) (%) [7, 14]: 5.005% and 21.85% and 10.96% and 7.41% and 3.16% and -1.81% and 3.59% and 12.92% and 4.005% and 1.16% and 7.12% and 18.43% and 19.52% and 10.47% and 20.56% and 16.02%
mean ratio of EGFR(+)HX103(+), non-responders ([7]; SD or PD, n = 4): 9.5 ± 5.6%
mean ratio of HX103(+), non-responders ([7]; SD or PD, n = 4): 17.0 ± 4.5%
mean % value of HX103(+), EGFR 19del tumors ([8]; n = 4): 40.6±8.2%
mean % value of HX103(+), EGFR L858R tumors ([8]; n = 8): 65.3±10.9%

— publication PMC9663578, “A fluorogenic probe for predicting treatment response in non-small cell lung cancer with EGFR-activating mutations” (Nature Communications, 2022)
